The nature of data set [1]: Pharmacokinetics after SC administration. The note with it: 6 mg/kg. How it is done: Pharmacokinetics and toxicological studies
Male C57BL/6 mice, each weighing 23.4–25.4 g, were quarantined for 1 week before drug treatment. Compounds dissolved in 100% saline were individually given to mice (n = 3) subcutaneously (6 mg/kg; nonfasted mice). Blood samples were collected via cardiac puncture at defined time points (0 (immediately before dosing), 0.03, 0.08, 0.25, 0.5, 1, 2, and 4 h after dosing) and then stored at −80 °C. The volume of the dosing solution given was 100 µL for each mouse. The plasma samples were analyzed by liquid chromatography– tandem mass spectrometry (LC–MS/MS), and the data were calculated by a standard noncompartmental method using the Kinetica software program (InnaPhase). […]

Data set [2] can be described thus: Metabolic stability in liver microsomes. Type of data set: in vitro ADME. Particulars: mouse, rat, dog, and human. The text has this: Figure S4. The metabolic stabilities of BPRCX807 in liver microsomes. BPRCX807 is […]
Data set [3] has as its target T1, hERG (human K+ channel) (Homo sapiens, UniProt Q12809).
T1 construct: host or cells: CHO (hERG-CHO)
Nature of the data set: hERG patch-clamp assay (hERG-CHO, automated patch-clamp). Type of data set: cell-based. The text has this: page 16: Table: List of genes examined by real-time PCR and the primer sequences used. Genes Forward primers Reverse primers Slug [NT] Fn1 [NT] Cdh2 […] Foxc2 [NT] Zeb1 [NT] Zeb2 [NT] Twist1 [NT] Cdh1 [NT] Mta3 [NT] Cldn3 [NT] Cldn5 [NT] β-actin […] [NT] Off-target standard assays Methods employed in this study have been adapted from the scientific literature to maximize reliability and reproducibility. Reference standards were run as an integral part of each assay to ensure the validity of the results obtained. Radioligand binding Assays were performed under conditions described in the accompanying "Methods" section of this report by Eurofins Panlabs, Inc (Taipei, Taiwan, ROC). hERG patch-clamp assay BPRCX807 were tested in the hERG (hERG-CHO, automated patch-clamp) assay and determined at Eurofins Panlabs (Missouri, USA). The experiment was accepted in accordance with Eurofins validation Standard Operating Procedure. Selectivity Screening of various chemokine receptors The results were performed by Eurofins DiscoverX (Fremont, California, USA). The S15
A general note: hERG is a cardiac potassium channel; its block is linked to QT prolongation.

Data set [4] deals with orthotopic HCA-1 tumors. Nature of the data set: Orthotopic HCA-1 HCC model. Particulars: treatment alone; for Effect on tumor growth: 15 mg/kg/d SC minipump 14 d. Type of data set: in vivo, C3H mice. How it is done:
(§1) In vivo hepatocellular carcinoma treatment studies […]
(§2) mouse PD-1 (200 µg/mouse; BioXcell, BE0146). The therapeutic efficacy and the changes in immune cells were analyzed after two weeks of treatment. The tumor volume was calculated with the following formula: volume = width × length × height/2. […]
Hematoxylin and Eosin staining
Lung tissue was cut into small pieces and fixed in 4% PFA (in PBS) overnight before being embedded in paraffin wax. The sections were then stained with hematoxylin and eosin (H&E) and observed with an inverted microscope (IX83, Olympus, Japan).
HCA-1 tumor-bearing mice were anesthetized, perfused via intracardiac injection with PBS and then sacrificed. Tumor tissues were collected and harvested in enzyme-containing DMEM cell culture medium (1.5 mg/mL of collagenase type 1A and hyaluronidase; Sigma).
The tissues were cut and ground into smaller pieces and then digested for 1 h at 37 °C to form suspensions of single tumor cells. The suspensions were filtered through a 70-µm cell strainer (Corning, Manassas, VA), and the cells were then incubated with rat anti-mouse CD16/CD32 mAbs to block Fc receptors. After washing 3 times and resuspending in cold flow buffer (1% BSA, 0.1% NaN3 in PBS), the single-cell suspensions were incubated with monoclonal anti-mouse F4/80-PE (eBiosciences, San Diego, CA), 7-AAD, CD3e-APC, CD8a-PE-Cy7, CD45-FITC, CD4-PE (BD Biosciences, East Rutherford, NJ), CD86-APC-

Data set [5] relates to orthotopic JHH-7 tumors. The experiment in a line: Orthotopic JHH-7 HCC model. The class given is in vivo, nude mice. The note with it: treatment alone, 15 mg/kg/d SC minipump 14 d. The procedure:
as §1, §2

For data set [6] the following is noted: SC, mice, n = 3.
Data set [7] concerns HCA-1 cells. Nature of the data set: Western blot of phospho-ERK and phospho-AKT after CXCL12 stimulation. Type of data set: cell-based, murine. How it is done:
(§3) Western blotting was conducted by following standard procedures. HCA-1 or JHH-7 cells (10^5 cells per well) were seeded in 12-well plates (Costar, IL), incubated for 12 h and […]
(§4) containing (100 ng/mL) serum-free medium. After 24 h, the cells were lysed in RIPA buffer on ice for 30 min, and samples were collected and loaded with 4× Laemmli Sample buffer (Bio-Rad, Hercules, CA). The samples were separated on a 10% SDS-PAGE gels and transferred to PVDF membranes. After blocking with skim milk for 1 h, the membranes were incubated at 4°C overnight with primary antibodies against p -AKT, AKT, p-ERK, ERK (Cell Signaling, Danvers, MA) or β-actin (Sigma-Aldrich, St. Louis, MO) before incubation with HRP-conjugated secondary antibodies (Antibodies Inc., Davis, CA) for 1 h. […]
(§5) Total RNA was extracted from HCA-1 cells using the RNeasy Mini Kit (Qiagen, CA, USA). cDNAs were synthesized using the High-Capicity cDNA Reverse Transcription Kit […]
(§6) Biosystems, CA, USA) on a QPCR System. The comparative threshold cycle method was used to calculate fold change in gene expression, which was normalized to β-actin as a […]
For orientation: A western blot detects proteins with antibodies after separation by electrophoresis.

Data set [8] concerns JHH-7 cells. Described as above. The class given is cell-based, human. How it is done: as §3, §4, §5, §6
Data set [9] has as its target CXCR4 (Homo sapiens, UniProt P61073). Details: expressed in transfected cells; host or cells: HEK293T. The note with it: screening hit; read-out: IC50 (binding affinity toward CXCR4 receptors); cited from earlier work.
[10] abbreviates: male, C57BL/6, mouse, in vivo, sc.

Bounds are passed on as bounds.

Sequence of CXCR4 (P61073 whole entry): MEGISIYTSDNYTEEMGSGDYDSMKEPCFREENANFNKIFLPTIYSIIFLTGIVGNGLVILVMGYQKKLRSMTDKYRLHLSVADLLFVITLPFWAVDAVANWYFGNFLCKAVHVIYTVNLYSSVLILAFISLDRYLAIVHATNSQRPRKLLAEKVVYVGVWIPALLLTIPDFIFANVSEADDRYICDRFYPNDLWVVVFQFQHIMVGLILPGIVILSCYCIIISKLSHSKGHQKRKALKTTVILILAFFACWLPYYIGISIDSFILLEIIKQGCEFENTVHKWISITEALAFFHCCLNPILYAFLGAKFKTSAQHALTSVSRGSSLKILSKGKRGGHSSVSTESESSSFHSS
T1 sequence (Q12809 whole entry): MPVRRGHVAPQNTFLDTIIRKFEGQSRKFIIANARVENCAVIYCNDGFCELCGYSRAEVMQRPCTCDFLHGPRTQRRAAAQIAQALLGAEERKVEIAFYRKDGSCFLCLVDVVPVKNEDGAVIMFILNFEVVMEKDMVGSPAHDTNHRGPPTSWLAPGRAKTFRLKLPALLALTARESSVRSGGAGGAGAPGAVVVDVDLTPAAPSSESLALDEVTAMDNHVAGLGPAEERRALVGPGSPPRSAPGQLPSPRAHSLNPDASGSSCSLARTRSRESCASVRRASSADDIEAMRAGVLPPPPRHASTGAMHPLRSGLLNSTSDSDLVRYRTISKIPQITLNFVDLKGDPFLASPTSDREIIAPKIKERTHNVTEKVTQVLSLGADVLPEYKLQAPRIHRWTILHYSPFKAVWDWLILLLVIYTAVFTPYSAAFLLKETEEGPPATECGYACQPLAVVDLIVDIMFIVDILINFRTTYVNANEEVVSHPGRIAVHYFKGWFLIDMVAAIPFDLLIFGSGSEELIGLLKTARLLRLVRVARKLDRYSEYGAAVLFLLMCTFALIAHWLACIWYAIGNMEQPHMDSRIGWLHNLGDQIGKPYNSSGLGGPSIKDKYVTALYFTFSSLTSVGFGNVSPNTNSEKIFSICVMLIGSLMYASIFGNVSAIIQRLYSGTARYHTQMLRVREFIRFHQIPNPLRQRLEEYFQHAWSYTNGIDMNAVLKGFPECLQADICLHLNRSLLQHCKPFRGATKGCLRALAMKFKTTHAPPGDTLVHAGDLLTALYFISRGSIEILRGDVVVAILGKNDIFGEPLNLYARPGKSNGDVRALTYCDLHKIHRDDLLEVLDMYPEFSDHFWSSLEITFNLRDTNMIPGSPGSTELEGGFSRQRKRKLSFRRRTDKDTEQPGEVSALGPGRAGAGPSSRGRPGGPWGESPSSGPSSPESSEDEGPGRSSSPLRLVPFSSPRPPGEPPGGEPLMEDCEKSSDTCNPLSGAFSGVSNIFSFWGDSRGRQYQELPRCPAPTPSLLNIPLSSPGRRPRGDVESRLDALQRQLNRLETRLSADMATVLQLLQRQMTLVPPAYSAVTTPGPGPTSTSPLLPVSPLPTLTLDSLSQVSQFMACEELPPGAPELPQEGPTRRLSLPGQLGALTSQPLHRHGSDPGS

What is called Cmax is the maximum level reached in the sampled fluid or tissue. Usually half-life stands for the time needed for the level to fall by half in the phase considered. A low value points to rapid decline. In general, IC50 refers to the point on the concentration scale where inhibition reaches its midpoint. As to `c1cc(CN2CCCNCCNCCCNCC2)ccc1CN1CCCNCCNCCCNCC1` [AMD3100, reference compound], the “AUC0–4 h” value in [1] (SC, mice, n = 3) is on record as 7,152 ± 135 ng/mL·h. For the same compound, in [1] (setting [10]), the concentration peaked (Cmax) at 6200 ng/mL and the half-life was 1 h. The “Metabolic stability in liver microsomes” value in data set [2] was “Stable”. In addition, the IC50 in [3] is greater than 100000 nM. Also, in data set [4], the “Effect on tumor growth” value is on record as “no significant effect on tumor growth”. Also, in data set [4] (day 24), the “Lung metastasis (number of lung nodules)” value is on record as “reduced”. Besides, the “Effect on tumor growth” value in data set [5] is listed as “no significant effect on tumor growth”. The compound also came in with a Maximum tolerated dose in data set [6] of 15 mg/kg.
Regarding `CNC(=O)c1cc(Oc2ccc(NC(=O)Nc3ccc(Cl)c(C(F)(F)F)c3)cc2)ccn1` [sorafenib, reference compound], the “F4/80+ TAMs infiltration into tumor (flow cytometry)” value in [4] is listed as “substantially increased”. In addition, in [4] (day 24), the “Intratumoral mean vessel density (MVD, CD31+ staining)” value is “significantly decrease intratumoral MVD” and the “Lung metastasis (number of lung nodules)” value is on record as “barely reduced”.
For the compound `NCCCCN(Cc1nc2ccccc2[nH]1)[C@H]1CCCc2cccnc21` [AMD11070, reference compound], the “CXCL12-mediated cell signaling (phospho-ERK, phospho-AKT)” value in [7] and in data set [8] was “moderately inhibited” each time.
For `CCN(CC)CCCC(C)Nc1cc(/C=C/c2ccc([N+](=O)[O-])cc2)nc2cc(OC)ccc12` (centres unmarked) [CSV18742], the IC50 in data set [9] is 2130 ± 110 nM.
`Cc1cc(NC2CCN(C(=O)CCNCC(=O)O)CC2)nc(NCc2cn(CCCNCCCNC3CCCCC3)nn2)n1` [BPRCX714, reference compound]: the “Effect on tumor growth” value in data set [4] and in data set [5] was “no significant effect on tumor growth” each time.
